Source: BigSolDB 2.1

SMILES: NC(=O)Cc1ccc(O)cc1
- solubility (mole fraction) (in acetonitrile, 278.15 K): 0.00096
- solubility (mole fraction) (in acetonitrile, 283.15 K): 0.00141
- solubility (mole fraction) (in acetonitrile, 288.15 K): 0.00188
- solubility (mole fraction) (in acetonitrile, 293.15 K): 0.00249
- solubility (mole fraction) (in acetonitrile, 298.15 K): 0.00305
- solubility (mole fraction) (in acetonitrile, 303.15 K): 0.00376
- solubility (mole fraction) (in acetonitrile, 308.15 K): 0.00463
- solubility (mole fraction) (in acetonitrile, 313.15 K): 0.00573
- solubility (mole fraction) (in acetonitrile, 318.15 K): 0.00705
- solubility (mole fraction) (in acetonitrile, 323.15 K): 0.00869
- solubility (mole fraction) (in ethanol, 278.15 K): 0.00381
- solubility (mole fraction) (in ethanol, 283.15 K): 0.00459
- solubility (mole fraction) (in ethanol, 288.15 K): 0.00534
- solubility (mole fraction) (in ethanol, 293.15 K): 0.00638
- solubility (mole fraction) (in ethanol, 298.15 K): 0.00752
- solubility (mole fraction) (in ethanol, 303.15 K): 0.00902
- solubility (mole fraction) (in ethanol, 308.15 K): 0.0107
- solubility (mole fraction) (in ethanol, 313.15 K): 0.0126
- solubility (mole fraction) (in ethanol, 318.15 K): 0.015
- solubility (mole fraction) (in ethanol, 323.15 K): 0.0179
- solubility (mole fraction) (in ethyl acetate, 278.15 K): 0.0017
- solubility (mole fraction) (in ethyl acetate, 283.15 K): 0.00196
- solubility (mole fraction) (in ethyl acetate, 288.15 K): 0.00238
- solubility (mole fraction) (in ethyl acetate, 293.15 K): 0.00297
- solubility (mole fraction) (in ethyl acetate, 298.15 K): 0.00363
- solubility (mole fraction) (in ethyl acetate, 303.15 K): 0.00455
- solubility (mole fraction) (in ethyl acetate, 308.15 K): 0.00557
- solubility (mole fraction) (in ethyl acetate, 313.15 K): 0.00663
- solubility (mole fraction) (in ethyl acetate, 318.15 K): 0.0078
- solubility (mole fraction) (in ethyl acetate, 323.15 K): 0.00932
- solubility (mole fraction) (in isopropanol, 278.15 K): 0.00319
- solubility (mole fraction) (in isopropanol, 283.15 K): 0.00379
- solubility (mole fraction) (in isopropanol, 288.15 K): 0.0046
- solubility (mole fraction) (in isopropanol, 293.15 K): 0.00552
- solubility (mole fraction) (in isopropanol, 298.15 K): 0.00684
- solubility (mole fraction) (in isopropanol, 303.15 K): 0.00852
- solubility (mole fraction) (in isopropanol, 308.15 K): 0.0102
- solubility (mole fraction) (in isopropanol, 313.15 K): 0.0122
- solubility (mole fraction) (in isopropanol, 318.15 K): 0.0142
- solubility (mole fraction) (in isopropanol, 323.15 K): 0.0164
- solubility (mole fraction) (in methanol, 278.15 K): 0.0075
- solubility (mole fraction) (in methanol, 283.15 K): 0.00824
- solubility (mole fraction) (in methanol, 288.15 K): 0.00951
- solubility (mole fraction) (in methanol, 293.15 K): 0.0111
- solubility (mole fraction) (in methanol, 298.15 K): 0.0128
- solubility (mole fraction) (in methanol, 303.15 K): 0.0148
- solubility (mole fraction) (in methanol, 308.15 K): 0.0169
- solubility (mole fraction) (in methanol, 313.15 K): 0.0192
- solubility (mole fraction) (in methanol, 318.15 K): 0.0218
- solubility (mole fraction) (in methanol, 323.15 K): 0.0246
- solubility (mole fraction) (in methyl acetate, 278.15 K): 0.0032
- solubility (mole fraction) (in methyl acetate, 283.15 K): 0.00359
- solubility (mole fraction) (in methyl acetate, 288.15 K): 0.00415
- solubility (mole fraction) (in methyl acetate, 293.15 K): 0.00486
- solubility (mole fraction) (in methyl acetate, 298.15 K): 0.00577
- solubility (mole fraction) (in methyl acetate, 303.15 K): 0.0068
- solubility (mole fraction) (in methyl acetate, 308.15 K): 0.00779
- solubility (mole fraction) (in methyl acetate, 313.15 K): 0.00908
- solubility (mole fraction) (in methyl acetate, 318.15 K): 0.0103
- solubility (mole fraction) (in methyl acetate, 323.15 K): 0.0118
- solubility (mole fraction) (in n-butanol, 278.15 K): 0.00284
- solubility (mole fraction) (in n-butanol, 283.15 K): 0.00346
- solubility (mole fraction) (in n-butanol, 288.15 K): 0.00428
- solubility (mole fraction) (in n-butanol, 293.15 K): 0.00508
- solubility (mole fraction) (in n-butanol, 298.15 K): 0.00642
- solubility (mole fraction) (in n-butanol, 303.15 K): 0.00754
- solubility (mole fraction) (in n-butanol, 308.15 K): 0.00899
- solubility (mole fraction) (in n-butanol, 313.15 K): 0.0106
- solubility (mole fraction) (in n-butanol, 318.15 K): 0.0125
- solubility (mole fraction) (in n-butanol, 323.15 K): 0.0144
- solubility (mole fraction) (in n-butyl acetate, 278.15 K): 0.00269
- solubility (mole fraction) (in n-butyl acetate, 283.15 K): 0.003
- solubility (mole fraction) (in n-butyl acetate, 288.15 K): 0.00345
- solubility (mole fraction) (in n-butyl acetate, 293.15 K): 0.0041
- solubility (mole fraction) (in n-butyl acetate, 298.15 K): 0.00491
- solubility (mole fraction) (in n-butyl acetate, 303.15 K): 0.00587
- solubility (mole fraction) (in n-butyl acetate, 308.15 K): 0.00694
- solubility (mole fraction) (in n-butyl acetate, 313.15 K): 0.00812
- solubility (mole fraction) (in n-butyl acetate, 318.15 K): 0.00935
- solubility (mole fraction) (in n-butyl acetate, 323.15 K): 0.0105
- solubility (mole fraction) (in n-heptane, 278.15 K): 0.00061
- solubility (mole fraction) (in n-heptane, 283.15 K): 0.00087
- solubility (mole fraction) (in n-heptane, 288.15 K): 0.00111
- solubility (mole fraction) (in n-heptane, 293.15 K): 0.00145
- solubility (mole fraction) (in n-heptane, 298.15 K): 0.00194
- solubility (mole fraction) (in n-heptane, 303.15 K): 0.00253
- solubility (mole fraction) (in n-heptane, 308.15 K): 0.00329
- solubility (mole fraction) (in n-heptane, 313.15 K): 0.00418
- solubility (mole fraction) (in n-heptane, 318.15 K): 0.00509
- solubility (mole fraction) (in n-heptane, 323.15 K): 0.00627
- solubility (mole fraction) (in n-hexane, 278.15 K): 0.00032
- solubility (mole fraction) (in n-hexane, 283.15 K): 0.00053
- solubility (mole fraction) (in n-hexane, 288.15 K): 0.00082
- solubility (mole fraction) (in n-hexane, 293.15 K): 0.00116
- solubility (mole fraction) (in n-hexane, 298.15 K): 0.00151
- solubility (mole fraction) (in n-hexane, 303.15 K): 0.00205
- solubility (mole fraction) (in n-hexane, 308.15 K): 0.00263
- solubility (mole fraction) (in n-hexane, 313.15 K): 0.00343
- solubility (mole fraction) (in n-hexane, 318.15 K): 0.00438
- solubility (mole fraction) (in n-hexane, 323.15 K): 0.0056
- solubility (mole fraction) (in n-propanol, 278.15 K): 0.00215
- solubility (mole fraction) (in n-propanol, 283.15 K): 0.00245
- solubility (mole fraction) (in n-propanol, 288.15 K): 0.00292
- solubility (mole fraction) (in n-propanol, 293.15 K): 0.0035
- solubility (mole fraction) (in n-propanol, 298.15 K): 0.00424
- solubility (mole fraction) (in n-propanol, 303.15 K): 0.0052
- solubility (mole fraction) (in n-propanol, 308.15 K): 0.00629
- solubility (mole fraction) (in n-propanol, 313.15 K): 0.00734
- solubility (mole fraction) (in n-propanol, 318.15 K): 0.00868
- solubility (mole fraction) (in n-propanol, 323.15 K): 0.01
- solubility (mole fraction) (in water, 278.15 K): 0.00096
- solubility (mole fraction) (in water, 283.15 K): 0.00141
- solubility (mole fraction) (in water, 288.15 K): 0.00188
- solubility (mole fraction) (in water, 293.15 K): 0.00249
- solubility (mole fraction) (in water, 298.15 K): 0.00305
- solubility (mole fraction) (in water, 303.15 K): 0.00376
- solubility (mole fraction) (in water, 308.15 K): 0.00463
- solubility (mole fraction) (in water, 313.15 K): 0.00573
- solubility (mole fraction) (in water, 318.15 K): 0.00705
- solubility (mole fraction) (in water, 323.15 K): 0.00869
